Experimental data: patent US20060205671A1 (priority 2003, published 2006)
Where two headings read alike, the source gives them in different places.

Columns and labels:
[1] = tested on: models of LAD occlusion followed by reperfusion; details: at onset of reperfusion, continued 2 hours post-reperfusion; cited from earlier work
[2] = tested on: rabbit model of coronary occlusion-reperfusion; details: cited from earlier work; for Effect of antagonist on the effects of PolyA (infarct size): given with PolyA, KW-3902 1 mg/kg i.v.
[3] = tested on: canine model of LAD occlusion with reperfusion; details: cited from earlier work
[4] = tested on: neutrophils; details: cited from earlier work; for Superoxide generation by neutrophils: neutrophils activated by fMLP, A23187, concanavalin A (adenosine)
[5] = tested on: closed-chest porcine model of regional ischemia and reperfusion; assay: Non-surgical ischemia-reperfusion injury in a closed-chest porcine model (75 min LAD occlusion, reperfusion); format: in vivo
Protocol: The use of combined adenosine and aprotinin treatment in the cath-lab setting was performed in a closed-chest porcine model of regional ischemia and reperfusion. Farm-bred pigs were initially anesthetized with ketamine, xylazine, acepromazine, diazepam and atropine, followed by maintenance anesthesia with inhaled isoflurane. Through a small femoral artery cut-down, a pigtail catheter was fluoroscopically guided into the left ventricle for injection of non-radioactive microspheres to measure regional myocardial blood flow. A similar cut-down was performed on the contralateral femoral artery, through which was placed a sheath to introduce a 7-Fr guide catheter and angioplasty-type balloon catheters. The 7-Fr guide catheter was inserted into this sheath and fluoroscopically guided to the left main coronary artery. The left main coronary ostium was engaged by the catheter and a guide wire. An angioplasty-type balloon catheter was guided into the LAD just distal to the first diagonal branch. […]
After all instrumentation was complete, the animal was allowed to stabilize for 10 minutes. Baseline hemodynamics (arterial pressure, heart rate) and myocardial blood flow (microspheres) were measured. The microspheres were injected via the pigtail catheter to quantify myocardial blood flow during steady state. […]

[6] = tested on: reperfusion injury in the canine preparation; details: 24 hours after start of reflow, cited from earlier work
[7] = tested on: platelets; details: exogenous adenosine; cited from earlier work
[8] = tested on: ischemically injured hearts (30 minutes of normothermic global ischemia); details: blood cardioplegia supplemented with 400 μM adenosine vs unsupplemented; cited from earlier work
[9] = tested on: canine model of severe coronary occlusion; details: 10 μM in blood perfusate, first 30 min of reperfusion; after two hours of reperfusion; vs vehicle; cited from earlier work
[10] = tested on: permanent (24 hours) coronary artery occlusion; details: 100,000 KIU i.v. 30 minutes after occlusion; cited from earlier work
[11] = tested on: canine model of 15 minutes coronary artery occlusion; details: 30,000 KIU/kg bolus plus 7,000 KIU/kg/hr i.v. prior to occlusion; vs saline control; cited from earlier work
[12] = tested on: rat model of coronary artery occlusion and 24 hours of reperfusion; details: cited from earlier work
[13] = tested on: isolated canine hearts; details: cardioplegia containing 150 KIU aprotinin, cited from earlier work
[14] = tested on: isolated rat hearts; details: 105 KIU/L aprotinin, pretreatment and adjunct to crystalloid cardioplegia; cited from earlier work
[15] = tested on: rat myocardium slices; details: 200 KIU aprotinin, cited from earlier work
[16] = infusion for first hour of reperfusion
[17] = 5,000 KIU/kg before onset of reperfusion, vs vehicle
[18] = 20,000 KIU/kg before onset of reperfusion

## 1S-[1a,2b,3b,4a(S*)]]-4-[7-[[2-(3-chloro-2-thienyl)-1-methylpropyl]amino]-3H-imidazo[4,5-b]pyridyl-3-yl]cyclopentane carboxamide [AMP-579]
[1]
  Infarct size: reduced

## Cn1c(=O)c2[nH]c(-c3ccc(S(=O)(=O)O)cc3)nc2n(C)c1=O [8-SPT, 8-p-sulfophenyl theophylline]
[2]
  Effect of antagonist on the effects of PolyA (infarct size): reversed

## CCNC(=O)[C@H]1O[C@@H](n2cnc3c(N)nc(NCCc4ccc(CCC(=O)O)cc4)nc32)[C@H](O)[C@@H]1O [CGS-21680, 2-[p-(2-carbonyl-ethyl)-phenylethylamino]-5′-N-ethylcarboxamidoadenosine]
[3]; 60 min occlusion, intracoronary infusion for first hour of reperfusion, saline vehicle 29.8±2.3%
  Infarct size: 15.4±2.9 % of the area at risk
[3]; [16]
  Neutrophil accumulation in the area at risk: significantly reduced
  Wall motion: no improvement
[4]
  Superoxide generation by neutrophils: attenuated

## CCCn1c(=O)c2[nH]c(C34CC5CC(CC3C5)C4)nc2n(CCC)c1=O [KW-3902, 8-(3-noradamantyl)-1,3-dipropylxanthine]
[2]
  Effect of antagonist on the effects of PolyA (infarct size): not altered

## Nc1ncnc2c1ncn2[C@@H]1O[C@H](CO)[C@@H](O)[C@H]1O [adenosine]
[5]; intracoronary adenosine approx 10-20 μM LAD blood concentration for about 30 min at reperfusion, group of three animals, delivery questionable (no vasodilatory effect at 15 min)
  Infarct size: 40.4±3.6%
[5]; intracoronary adenosine approx 10-20 μM for about 30 min at reperfusion, the one experiment with delivery confirmed by vasodilation at 15 min reperfusion
  Infarct size: 10%
[6]; intracoronary 3.75 mg/min at onset of reperfusion
  Regional contractile function: improved
[6]; intracoronary into LAD 3.75 mg/min at onset of reperfusion
  Reduction of infarct size: 75%
[7]
  Concentrations inhibiting platelet aggregation: 2 to 40 µM
[4]
  Superoxide generation by neutrophils: inhibited
[8]
  Post-ischemic systolic dysfunction: reversed
[9]
  Infarct size as percent of AAR (An/ARR): significantly lower
  Infarct size as percent of LV (An/LV): significantly lower

## aprotinin
[10]
  Histologically apparent infarct size: decreased
[11]
  Recovery of systolic function in the area at risk (systolic shortening): significantly greater recovery
[12]; [17]
  Infarct size estimated from myocardial creatine kinase loss: significantly reduced
  Neutrophil accumulation (myocardial myeloperoxidase): significantly reduced
[12]; 5,000 or 20,000 KIU/kg before onset of reperfusion
  Appearance of apoptosis in the area at risk myocardium: attenuated
[12]; [18]
  Infarct size estimated from myocardial creatine kinase loss: further significantly reduced
  Neutrophil accumulation (myocardial myeloperoxidase): significantly reduced
[13]
  Lysosomal enzyme N-acetyl-β-D-glucosaminidase in coronary sinus blood during reperfusion: significantly lower
  Recovery of systolic function (end-systolic pressure-volume relationship): significantly less recovery
[13]; vs control group
  Post-ischemic non-specific creatine kinase (CK) activity or CK-MB isoenzyme activity: no difference
  Recovery of post-ischemic ATP after reperfusion: significantly greater
[14]
  Myocardial protection: significant protection
[15]; 4° C., up to 6 hours of storage
  ATP content and protein synthesis of myocardium slices: attenuated the decline
[15]
  TNFα generation and uptake by myocardial tissue slices: suppressed

## polyadenylic acid
[2]; nearly sub-vasodilator dose at reperfusion
  Reduction of infarct size: 50%
[4]
  PMNs superoxide generation and adherence to coronary endothelium: significantly inhibited
